Each structure is given as a SMILES string.

The target in this assay is T1, AHR (UniProt P35869).
T1 sequence (P35869 1-848): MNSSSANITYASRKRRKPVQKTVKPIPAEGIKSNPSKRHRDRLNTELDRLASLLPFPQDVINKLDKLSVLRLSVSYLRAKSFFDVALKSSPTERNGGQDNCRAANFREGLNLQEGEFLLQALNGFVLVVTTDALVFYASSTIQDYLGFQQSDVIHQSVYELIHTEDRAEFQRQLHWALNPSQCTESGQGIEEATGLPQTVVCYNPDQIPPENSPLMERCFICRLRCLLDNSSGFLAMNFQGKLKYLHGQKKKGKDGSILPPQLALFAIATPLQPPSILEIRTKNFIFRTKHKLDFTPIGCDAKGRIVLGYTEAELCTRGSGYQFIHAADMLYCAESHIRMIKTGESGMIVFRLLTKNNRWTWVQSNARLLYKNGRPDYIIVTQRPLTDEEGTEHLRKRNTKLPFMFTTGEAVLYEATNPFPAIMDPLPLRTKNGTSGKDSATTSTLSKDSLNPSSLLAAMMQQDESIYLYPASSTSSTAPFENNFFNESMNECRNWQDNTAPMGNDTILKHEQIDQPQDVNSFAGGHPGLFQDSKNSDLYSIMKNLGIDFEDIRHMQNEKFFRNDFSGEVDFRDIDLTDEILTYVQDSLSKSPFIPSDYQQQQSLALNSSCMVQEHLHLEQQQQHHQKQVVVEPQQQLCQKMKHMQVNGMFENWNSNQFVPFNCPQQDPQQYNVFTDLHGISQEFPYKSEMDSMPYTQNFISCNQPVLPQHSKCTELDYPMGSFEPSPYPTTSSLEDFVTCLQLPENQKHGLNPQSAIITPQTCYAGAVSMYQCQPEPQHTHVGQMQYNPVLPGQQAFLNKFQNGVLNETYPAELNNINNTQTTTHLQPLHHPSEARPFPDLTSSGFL
In words: DRE-Luciferase Reporter Assay (Alternate Method), Example 1B. The conditions noted are these: concentration which inhibits half of the luciferase activity induced by AHR activating ligand; DRE-luciferase reporter cell line. It is filed as cell-based. In outline:
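Murine (Hepa1-6, Hepa-1c1c7) or human (HepG2) cells carrying a stable or transient DRE-luciferase reporter, stimulated with an AHR agonist (e.g. TCDD, kynurenine, ITE, BNF, FICZ) plus compound at plating or after overnight culture at 37 °C. Luciferase read after 4, 15 or 24 h; IC50 as concentration halving agonist-only signal relative to no-ligand baseline.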
In general terms: In a reporter assay the amount or activity of a reporter protein is the signal.
Regarding `CC(C)c1cnn2c(N[C@H]3CCc4[nH]c5cc(O)ccc5c4C3)nc(-c3cncc(F)c3)nc12` [Compound I-27b, (6S)-6-[[2-(5-Fluoro-3-pyridyl)-8-isopropyl-pyrazolo[1,5-a][1,3,5]triazin-4-yl]amino]-6,7,8,9-tetrahydro-5H-carbazol-2-ol], the IC50 – broadly, the concentration needed to halve the response being measured – is above 1500 nM.

As to `CC(C)c1cnn2c(N[C@@H]3CCc4[nH]c5ccccc5c4C3)nc(-n3cccn3)nc12` [Compound I-21, (3R)—N-(8-isopropyl-2-pyrazol-1-yl-pyrazolo[1,5-a][1,3,5]triazin-4-yl)-2,3,4,9-tetrahydro-1H-carbazol-3-amine], the IC50 was above 1500 nM.

With `CC(C)c1cnn2c(N[C@@H]3CCc4c(cc[nH]c4=O)C3)nc(-c3cncc(F)c3)nc12` [Compound I-66a, (6R)-6-[[2-(5-Fluoro-3-pyridyl)-8-isopropyl-pyrazolo[1,5-a][1,3,5]triazin-4-yl]amino]-5,6,7,8-tetrahydro-2H-isoquinolin-1-one], the IC50 is above 1500 nM.

`CC(C)c1cnn2c(N[C@@H]3CCc4[nH]c5ccccc5c4C3)nc(-c3cnsc3)nc12` [Compound I-53, (3R)—N-(8-Isopropyl-2-isothiazol-4-yl-pyrazolo[1,5-a][1,3,5]triazin-4-yl)-2,3,4,9-tetrahydro-1H-carbazol-3-amine] gave an IC50 of 500 to 1000 nM.

Turning to `CC(C)c1cnn2c(N[C@@H]3CCc4[nH]ncc4C3)nc(-c3cncc(F)c3)nc12` [Compound I-7a, 2-(5-fluoro-3-pyridyl)-8-isopropyl-N-[(5R)-4,5,6,7-tetrahydro-1H-indazol-5-yl]pyrazolo[1,5-a][1,3,5]triazin-4-amine], the half-maximal inhibitory concentration (IC50) was above 1500 nM.

Regarding `C=C(C)c1cnn2c(N[C@@H]3CCc4[nH]c5ccccc5c4C3)nc(-c3cncc(F)c3)nc12` [Compound I-11, (3R)—N-[2-(5-Fluoro-3-pyridyl)-8-isopropenyl-pyrazolo[,5-a][1,3,5]triazin-4-yl]-2,3,4,9-tetrahydro-1H-carbazol-3-amine], the IC50 was below 500 nM.

Consider `CC(C)c1cnn2c(N[C@@H]3CCc4[nH]c5ccccc5c4C3)nc(-c3ccn(C)c(=O)c3)nc12` [Compound I-1, 4-[8-Isopropyl-4-[[(3R)-2,3,4,9-tetrahydro-1H-carbazol-3-yl]amino]pyrazolo[1,5-a][1,3,5]triazin-2-yl]-1-methyl-pyridin-2-one], for which the IC50 was above 1500 nM.

In turn, `C[C@H](NCC1CC1)c1cnn2c(N[C@@H]3CCc4[nH]c5ccccc5c4C3)nc(-c3cncc(F)c3)nc12` [Compound I-20a, (3R)—N-[8-[(1S)-1-(Cyclopropylmethylamino)ethyl]-2-(5-fluoro-3-pyridyl)pyrazolo[1,5-a][1,3,5]triazin-4-yl]-2,3,4,9-tetrahydro-1H-carbazol-3-amine] gave an IC50 of 1000 to 1500 nM.

In the case of `CC(CO)CCNc1nc(-c2cncc(F)c2)nc2c(C(C)C)cnn12` (stereo not shown) [Compound I-40, 4-[[2-(5-Fluoro-3-pyridyl)-8-isopropyl-pyrazolo[1,5-a][1,3,5]triazin-4-yl]amino]-2-methyl-butan-1-ol], the concentration for half-maximal inhibition (IC50) is above 1500 nM.

`CC(C)c1cnn2c(N[C@H]3CCc4[nH]c5c(O)cccc5c4C3)nc(-c3cncc(F)c3)nc12` [Compound I-24b, (6S)-6-[[2-(5-fluoro-3-pyridyl)-8-isopropyl-pyrazolo[1,5-a][1,3,5]triazin-4-yl]amino]-6,7,8,9-tetrahydro-5H-carbazol-1-ol]: the IC50 was above 1500 nM.

`Fc1cncc(-c2nc(N[C@@H]3CCc4[nH]c5ccccc5c4C3)n3ncc(N4CCOCC4)c3n2)c1` [Compound I-38, (3R)—N-[2-(5-Fluoro-3-pyridyl)-8-morpholino-pyrazolo[1,5-a][1,3,5]triazin-4-yl]-2,3,4,9-tetrahydro-1H-carbazol-3-amine] registered an IC50 below 500 nM.

In turn, `CC(C)c1cnn2c(N[C@H]3CNc4ncncc4C3)nc(-c3cncc(F)c3)nc12` [Compound I-60a, (6R)—N-[2-(5-Fluoro-3-pyridyl)-8-isopropyl-pyrazolo[1,5-a][1,3,5]triazin-4-yl]-5,6,7,8-tetrahydropyrido[2,3-d]pyrimidin-6-amine] yielded a half-maximal inhibitory concentration (IC50) above 1500 nM.

As for `Fc1cncc(-c2nc(N[C@@H]3CCc4[nH]c5ccccc5c4C3)n3nc4c(c3n2)CCCC4)c1` [Compound I-30, 2-(5-fluoro-3-pyridyl)-N-[(3R)-2,3,4,9-tetrahydro-1H-carbazol-3-yl]-7,8,9,10-tetrahydro-[1,3,5]triazino[1,2-b]indazol-4-amine], the IC50 is 500 to 1000 nM.

The molecule `CC(C)c1cnn2c(N[C@@H]3CCc4[nH]c5c(O)cccc5c4C3)nc(-c3cncc(F)c3)nc12` [Compound I-24a, (6R)-6-[[2-(5-fluoro-3-pyridyl)-8-isopropyl-pyrazolo[1,5-a][1,3,5]triazin-4-yl]amino]-6,7,8,9-tetrahydro-5H-carbazol-1-ol] returned an IC50 above 1500 nM.

`[2H]C([2H])([2H])C(c1cnn2c(N[C@@H]3CCc4[nH]c5ccccc5c4C3)nc(-c3cncc(F)c3)nc12)C([2H])([2H])[2H]` [Compound I-59, (3R)—N-[2-(5-Fluoro-3-pyridyl)-8-[2,2,2-trideuterio-1-(trideuteriomethyl)ethyl]pyrazolo[1,5-a][1,3,5]triazin-4-yl]-2,3,4,9-tetrahydro-1H-carbazol-3-amine] showed an IC50 below 500 nM.

`O[C@@H](c1cnn2c(N[C@@H]3CCc4[nH]c5ccccc5c4C3)nc(-c3cncc(F)c3)nc12)C(F)(F)F` [Compound I-41b, (1S)-2,2,2-trifluoro-1-[2-(5-fluoro-3-pyridyl)-4-[[(3R)-2,3,4,9-tetrahydro-1H-carbazol-3-yl]amino]pyrazolo[1,5-a][1,3,5]triazin-8-yl]ethanol] came in with a 50% inhibitory concentration (IC50) below 500 nM.

`CC(C)c1cnn2c(N[C@@H]3CCc4[nH]c5ccccc5c4C3)nc(-n3cnc4ccccc43)nc12` [Compound I-12, (3R)—N-[2-(Benzimidazol-1-yl)-8-isopropyl-pyrazolo[1,5-a][1,3,5]triazin-4-yl]-2,3,4,9-tetrahydro-1H-carbazol-3-amine] showed a 50% inhibitory concentration (IC50) of 1000 to 1500 nM.

As for `CC(C)c1cnn2c(N[C@@H]3CCc4[nH]c5ccccc5c4C3)nc(-c3ccc(N4CCOCC4)nc3)nc12` [Compound I-2, (3R)—N-[8-Isopropyl-2-(6-morpholino-3-pyridyl)pyrazolo[1,5-a][1,3,5]triazin-4-yl]-2,3,4,9-tetrahydro-1H-carbazol-3-amine], the half-inhibitory concentration (IC50) is above 1500 nM.

Turning to `CC(C)c1cnn2c(N[C@@H]3CCc4[nH]c5ccccc5c4C3)nc(-c3ccc(N(C)C)nc3)nc12` [Compound I-6, (3R)—N-[2-[6-(dimethylamino)-3-pyridyl]-8-isopropyl-pyrazolo[1,5-a][1,3,5]triazin-4-yl]-2,3,4,9-tetrahydro-1H-carbazol-3-amine], the IC50 was above 1500 nM.

As for `CC(C)c1cnn2c(N[C@H]3Cc4[nH]cnc4NC3=O)nc(-c3cncc(F)c3)nc12` [Compound I-62a, (6S)-6-[[2-(5-Fluoro-3-pyridyl)-8-isopropyl-pyrazolo[1,5-a][1,3,5]triazin-4-yl]amino]-1,4,6,7-tetrahydroimidazo[4,5-b]pyridin-5-one], the concentration for half-maximal inhibition (IC50) is above 1500 nM.

On to `CC(C)c1cnn2c(NCCCCO)nc(-c3cnsc3)nc12` [Compound I-54, 4-[(8-Isopropyl-2-isothiazol-4-yl-pyrazolo[1,5-a][1,3,5]triazin-4-yl)amino]butan-1-ol], for which the IC50 is above 1500 nM.

`CC(C)c1cnn2c(N[C@H]3CCc4[nH]c(=O)ccc4C3)nc(-c3cncc(F)c3)nc12` [Compound I-36b, (S)-6-((2-(5-Fluoropyridin-3-yl)-8-isopropylpyrazolo[1,5-a][1,3,5]triazin-4-yl)amino)-5,6,7,8-tetrahydroquinolin-2(1H)-one]: the 50% inhibitory concentration (IC50) was above 1500 nM.

These data come from patent US20220144839A1, “INDOLE AHR INHIBITORS AND USES THEREOF” (Ikena Oncology, Inc., priority 2018, published 2022).
